Assay results published in patent US20100305124A1, “Acylated Aminopyridine and Aminopyridazine Insecticides” (BAYER CROPSCIENCE AG, priority 2009, published 2010).
Where two headings read alike, the source gives them in different places.

Tested on: green peach aphid (Myzus persicae)
Assay: Myzus test (MYZUPE), sprayed aubergine plants
Type: in vivo
Conditions: read-out: effect in % (aphids killed); for pest or weed control at 100 ppm: application rate of 100 ppm
Description: Solvent: 3 parts by weight of dimethylformamide Emulsifier: 1 part by weight of polyoxyethylenealkyl phenyl ether
An appropriate preparation of active ingredient is prepared by mixing 1 part by weight of active ingredient with the stated amount of solvent and emulsifier and diluting the concentrate with water to the desired concentration.
Aubergine plants (Solanum melongena) infested by all stages of the green peach aphid (Myzus persicae) are sprayed with a preparation of active ingredient at the desired concentration.
After the desired time, the effect in % is determined; here, 100% means that all of the aphids have been killed. Conversely, 0% means that no aphids have been killed.

[1] = application rate of 500 ppm, spray on aubergine plants

| SMILES | pest or weed control at 500 ppm [1] [%] | other results |
| --- | --- | --- |
| CN(C(=O)c1ccc(Cn2cncn2)cc1)c1cccnc1 [I-22] | ≥ 80 | – |
| CN(C(=O)c1ccc(Oc2ccc(OC(F)(F)F)cc2)nc1)c1cccnc1 [I-95] | – | pest or weed control at 100 ppm (spray on aubergine plants): ≥ 80% |
| Cc1cc(C)nc(Sc2ccc(C(=O)N(Cc3ccc(C#N)cc3)c3cccnc3)cn2)n1 [I-228] | ≥ 80 | – |
| CCSc1ccc(C(=O)Nc2cccnc2)cc1 [I-55] | ≥ 80 | – |
| CCCSCc1ccc(C(=O)N(C)c2cccnc2)cc1 [I-60] | ≥ 80 | – |
| CCN(C)C(=O)c1cc(C(=O)N(C)c2cccnc2)ccc1OC [I-77] | ≥ 80 | – |
| CN(C(=O)c1ccc(Oc2ccc(S(C)(=O)=O)cc2)nc1)c1cccnc1 [I-101] | ≥ 80 | – |
| CCN(CC)C(=O)c1ccc(C(=O)N(CC)c2cccnc2)cc1 [I-251] | ≥ 80 | – |
| CCN(C(=O)c1ccc(N(C)C(=O)C(F)(F)Cl)cc1)c1cccnc1 [I-246] | ≥ 80 | – |
| O=C(Nc1cccnc1)c1ccc(Cn2ccc(C(F)(F)F)n2)nc1 [I-28] | ≥ 80 | – |
| O=C(Nc1cccnc1)c1ccc(C(=O)N2CCCC2)cc1 [I-42] | ≥ 80 | – |
| CN(C(=O)c1ccc(Oc2ccc(Cl)c(Cl)c2)nc1)c1cccnc1 [I-115] | ≥ 80 | – |
| CCN(C(=O)c1ccc(Oc2nc(C)cc(C)n2)nc1)c1cccnc1 [I-187] | ≥ 80 | – |
| CCN(C(=O)c1ccc(Sc2nc(C)c(C)c(C)n2)nc1)c1cccnc1 [I-220] | ≥ 80 | – |
| O=C(Nc1cccnc1)c1ccc(Cn2nc(C(F)(F)F)cc2C(F)(F)F)nc1 [I-9] | ≥ 80 | – |
| CN(C)c1ccc(C(=O)Nc2cccnc2)cn1 [I-184] | ≥ 80 | – |
| Cc1nc(Sc2ccc(C(=O)Nc3cccnc3)cn2)nc(C)c1C [I-218] | ≥ 80 | – |
| CN(C(=O)c1ccc(Cn2ccc(C(F)(F)F)n2)cc1)c1cccnc1 [I-27, N-Methyl-N-(pyridin-3-yl)-4-{[3-(trifluoromethyl)-1H-pyrazol-1-yl]methyl}benzenecarboxamide] | ≥ 80 | – |
| COc1cc(OC)nc(Oc2ccc(C(=O)Nc3cccnc3)cn2)n1 [I-168] | ≥ 80 | – |
| CN(C)C(=O)c1ccc(C(=O)Nc2cccnc2)cc1 [I-41] | ≥ 80 | – |
| CN(C(=O)c1ccc(Oc2cc(Cl)cc(Cl)c2)nc1)c1cccnc1 [I-123] | ≥ 80 | – |
| Cc1c(C(=O)Nc2cccnc2)cnn1-c1ncccc1Cl [I-1] | – | pest or weed control at 100 ppm (spray on aubergine plants): ≥ 80% |
| CCN(C(=O)c1ccc(Oc2ccc(C(F)(F)F)cc2)nc1)c1cccnc1 [I-157] | ≥ 80 | – |

| SMILES | pest or weed control at 500 ppm [1] [%] | other results |
| --- | --- | --- |
| CN(C(=O)c1ccc(Oc2ccc(C(F)(F)F)cc2)nc1)c1cccnc1 [I-117] | ≥ 80 | – |
| CN(C(=O)c1cccc(COc2ccc(C(F)(F)F)cc2)c1)c1cccnc1 [I-14] | ≥ 80 | – |
| CSCc1cccc(C(=O)N(C)c2cccnc2)c1 [I-57] | ≥ 80 | – |
| CCN(C(=O)c1ccc(Oc2nc(OC)cc(OC)n2)nc1)c1cccnc1 [I-169] | ≥ 80 | – |
| Cc1nc(Sc2ncc(C(=O)N(C)c3cccnc3)cc2Cl)nc(C)c1C [I-167] | ≥ 80 | – |
| CN(C(=O)c1ccc(/C=N/C2CCCC2)cc1)c1cccnc1 [I-233] | ≥ 80 | – |
| O=C(Nc1cccnc1)c1ccc(N2CCOCC2)nc1 [I-212] | ≥ 80 | – |
| CN(C(=O)c1ccc(Oc2ccc(Cl)cc2C#N)nc1)c1cccnc1 [I-113] | ≥ 80 | – |
| CCN(C(=O)c1ccc(Sc2nc(OC)cc(OC)n2)nc1)c1cccnc1 [I-175] | ≥ 80 | – |
| CCN(C(=O)c1cccc(OCc2nc(OC)cc(OC)n2)c1)c1cccnc1 [I-208] | ≥ 80 | – |
| CN(C(=O)c1ccc(Oc2cccc(Cl)c2)nc1)c1cccnc1 [I-99] | ≥ 80 | – |
| COc1cc(OC)nc(Oc2ccc(C(=O)N(C)c3cccnc3)cn2)n1 [I-145] | ≥ 80 | – |
| Cc1ccc(Oc2ccc(C(=O)Nc3cccnc3)cc2)cn1 [I-103] | ≥ 80 | – |
| CCN(C(=O)c1ccc(N(C)C(=O)C(F)(F)C(F)(F)C(F)(F)F)cc1)c1cccnc1 [I-248] | – | pest or weed control at 500 ppm: ≥ 80% |
| CN(C(=O)c1ccc(SC(F)(F)F)cc1)c1cccnc1 [I-54] | ≥ 80 | – |
| CCCSCc1ccc(C(=O)Nc2cccnc2)cc1 [I-39] | ≥ 80 | – |
| Cc1ccccc1Oc1ccc(C(=O)N(C)c2cccnc2)cn1 [I-96] | ≥ 80 | – |
| O=C(Nc1cccnc1)c1ccc(C(F)(F)C(F)(F)C(F)(F)F)nc1 [I-30] | – | pest or weed control at 500 ppm: ≥ 80% |
| CS(=O)(=O)c1ccc(Oc2ccc(C(=O)Nc3cccnc3)cn2)cc1 [I-217] | ≥ 80 | – |
| CC(C)S(=O)(=O)c1ccc(Oc2ccc(C(=O)N(C)c3cccnc3)cn2)cc1 [I-130] | ≥ 80 | – |
| O=C(Nc1cccnc1)c1ccc(Oc2ccc(Br)cc2)nc1 [I-84] | ≥ 80 | – |
| CCN(C(=O)c1ccc(/C=N/OC(C)C)cc1)c1cccnc1 [I-236] | ≥ 80 | – |
